# Data reported in the Kinase Knowledgebase extract (Sharma et al. 2016).
# Several values for one entry are separate records, joined by “and”; a condition that tells them apart may be missing. Equal values may be shown once.
# Molecular target: PIK3CD (Human) (UniProt O00329)
# Test: Inhibition of PIK3CD Kinase Activity in Pfeiffer Cells
# PIK3CD (Human), sequence (O00329 whole entry, looked up): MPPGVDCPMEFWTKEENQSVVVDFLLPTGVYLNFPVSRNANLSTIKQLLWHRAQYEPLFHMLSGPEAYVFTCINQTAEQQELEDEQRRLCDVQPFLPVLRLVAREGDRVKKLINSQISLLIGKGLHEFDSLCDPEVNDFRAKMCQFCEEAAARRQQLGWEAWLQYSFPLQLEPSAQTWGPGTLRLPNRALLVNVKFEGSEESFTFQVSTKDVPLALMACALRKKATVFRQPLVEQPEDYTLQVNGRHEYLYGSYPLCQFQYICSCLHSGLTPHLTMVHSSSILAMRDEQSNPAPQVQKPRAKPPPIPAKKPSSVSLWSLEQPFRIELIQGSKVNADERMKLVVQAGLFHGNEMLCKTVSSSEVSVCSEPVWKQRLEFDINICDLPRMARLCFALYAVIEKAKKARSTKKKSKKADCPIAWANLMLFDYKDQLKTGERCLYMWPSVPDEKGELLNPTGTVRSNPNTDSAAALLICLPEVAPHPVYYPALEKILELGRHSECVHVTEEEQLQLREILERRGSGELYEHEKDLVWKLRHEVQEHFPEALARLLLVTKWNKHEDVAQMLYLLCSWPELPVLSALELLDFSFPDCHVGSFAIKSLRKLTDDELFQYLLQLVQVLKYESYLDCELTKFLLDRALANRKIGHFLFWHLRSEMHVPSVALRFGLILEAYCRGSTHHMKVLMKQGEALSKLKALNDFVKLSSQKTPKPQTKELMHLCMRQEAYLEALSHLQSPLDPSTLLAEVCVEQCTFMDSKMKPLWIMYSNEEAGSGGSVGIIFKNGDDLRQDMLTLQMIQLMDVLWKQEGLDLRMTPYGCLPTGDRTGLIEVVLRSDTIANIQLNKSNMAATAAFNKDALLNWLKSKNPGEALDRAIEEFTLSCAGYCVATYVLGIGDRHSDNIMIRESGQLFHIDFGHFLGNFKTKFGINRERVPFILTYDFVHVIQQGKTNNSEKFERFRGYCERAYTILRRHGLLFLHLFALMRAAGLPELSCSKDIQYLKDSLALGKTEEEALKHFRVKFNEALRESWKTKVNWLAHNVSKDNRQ
row,Structure (SMILES),IC50
1,Cc1csc2nc(C(C)Nc3ncnc4[nH]cnc34)c(-c3cc(F)cc(Cl)c3)c(=O)n12 (configuration not stated),50 to 100 nM
2,Cc1cccc2nc(C(C)Nc3nc(N)nc4[nH]cnc34)c(-c3ccc(C#N)cc3)c(=O)n12 (configuration not stated),500 to 1000 nM
3,Cc1csc2nc(C(C)Nc3ncnc4[nH]cnc34)c(-c3cc(F)ccc3F)c(=O)n12 (configuration not stated),50 to 100 nM
4,Cc1csc2nc(C(C)Nc3nc(N)nc4[nH]cnc34)c(-c3ccccc3Cl)c(=O)n12 (configuration not stated),< 50 nM and 100 to 500 nM
5,Cc1csc2nc(C(C)Nc3ncnc4[nH]cnc34)c(-c3cscn3)c(=O)n12 (configuration not stated),50 to 100 nM
6,Cc1csc2nc(C(C)Nc3ncnc4[nH]cnc34)c(-c3cccc(Cl)c3)c(=O)n12 (configuration not stated),50 to 100 nM
7,Cc1csc2nc(C(C)Nc3ncnc4[nH]cnc34)c(-c3nccs3)c(=O)n12 (configuration not stated),50 to 100 nM
8,Cc1csc2nc(C(C)Nc3ncnc4[nH]cnc34)c(-c3ccccc3Cl)c(=O)n12 (configuration not stated),100 to 500 nM and < 50 nM
9,Cc1csc2nc(C(C)Nc3nc(N)nc4[nH]cnc34)c(-c3cc(F)cc(F)c3)c(=O)n12 (configuration not stated),< 50 nM
10,Cc1csc2nc(C(C)Nc3nc(N)nc4[nH]cnc34)c(-c3cccc(Cl)c3)c(=O)n12 (configuration not stated),< 50 nM
11,CCc1cccc2nc(C(C)Nc3nc(N)nc4[nH]cnc34)c(-c3cc(F)cc(F)c3)c(=O)n12 (configuration not stated),< 50 nM
12,Cc1csc2nc(C(C)Nc3nc(F)nc4[nH]cnc34)c(-c3cc(F)cc(F)c3)c(=O)n12 (configuration not stated),50 to 100 nM
13,Cc1csc2nc(C(C)Nc3nc(N)nc4[nH]cnc34)c(-c3cc(F)cc(Cl)c3)c(=O)n12 (configuration not stated),< 50 nM
14,Cc1csc2nc(C(C)Nc3ncnc4[nH]cnc34)c(-c3ccccc3F)c(=O)n12 (configuration not stated),50 to 100 nM
15,Cc1csc2nc(C(C)Nc3ncnc4[nH]cnc34)c(-c3cc(F)cc(F)c3)c(=O)n12 (configuration not stated),100 to 500 nM
16,Cc1csc2nc(C(C)Nc3ncnc4[nH]cnc34)c(-c3ccc(F)cc3)c(=O)n12 (configuration not stated),100 to 500 nM
17,CCc1cccc2nc(C(C)Nc3ncnc4[nH]cnc34)c(-c3ccc(F)cc3)c(=O)n12 (configuration not stated),100 to 500 nM

# More lines, now with the values ahead:
row,IC50,Structure (SMILES)
1,50 to 100 nM,Cc1cccc2nc(C(C)Nc3ncnc4[nH]cnc34)c(-c3cc(F)cc(F)c3)c(=O)n12 (configuration not stated)
2,50 to 100 nM,Cc1cccc(-c2c(C(C)Nc3nc(N)nc4[nH]cnc34)nc3cccc(C)n3c2=O)c1 (configuration not stated)
3,50 to 100 nM,Cc1cccc2nc(C(C)Nc3nc(N)nc4[nH]cnc34)c(-c3cccc(Cl)c3)c(=O)n12 (configuration not stated)
4,500 to 1000 nM,Cc1cccc2nc(C(C)Nc3ncnc4[nH]cnc34)c(-c3ccc(F)c(F)c3)c(=O)n12 (configuration not stated)
5,100 to 500 nM,Cc1cccc2nc(C(C)Nc3nc(N)nc4[nH]cnc34)c(-c3cccc(C#N)c3)c(=O)n12 (configuration not stated)
6,50 to 100 nM,Cc1cccc2nc(C(C)Nc3ncnc4[nH]cnc34)c(-c3cc(F)ccc3F)c(=O)n12 (configuration not stated)
7,50 to 100 nM,Cc1cccc2nc(C(C)Nc3ncnc4[nH]cnc34)c(-c3ccccc3Cl)c(=O)n12 (configuration not stated)
8,100 to 500 nM,Cc1cccc2nc(C(C)Nc3ncnc4[nH]cnc34)c(-c3ccccc3F)c(=O)n12 (configuration not stated)
9,100 to 500 nM,Cc1cccc2nc(C(C)Nc3ncnc4[nH]cnc34)c(-c3cccc(F)c3F)c(=O)n12 (configuration not stated)
10,50 to 100 nM,COc1cccc(-c2c(C(C)Nc3ncnc4[nH]cnc34)nc3cccc(C)n3c2=O)c1 (configuration not stated)
11,50 to 100 nM,Cc1cccc2nc(C(C)Nc3ncnc4[nH]cnc34)c(-c3cccc(Cl)c3)c(=O)n12 (configuration not stated)
12,100 to 500 nM,CCC(Nc1ncnc2[nH]cnc12)c1nc2cccc(C)n2c(=O)c1-c1cccc(F)c1 (configuration not stated)
13,50 to 100 nM,Cc1cccc2nc(C(C)Nc3nc(N)nc4[nH]cnc34)c(-c3ccccc3F)c(=O)n12 (configuration not stated)
14,500 to 1000 nM,CCC(Nc1ncnc2[nH]cnc12)c1nc2cccc(C)n2c(=O)c1-c1cn[nH]c1 (configuration not stated)
15,50 to 100 nM,Cc1cccc2nc(C(C)Nc3ncnc4[nH]cnc34)c(-c3ccccc3)c(=O)n12 (configuration not stated)
16,50 to 100 nM,Cc1ccc(-c2c(C(C)Nc3ncnc4[nH]cnc34)nc3cccc(C)n3c2=O)cc1 (configuration not stated)

# Molecular target: PIK3CD (Human) (UniProt O00329)
# Test: Inhibition of PIK3CD Kinase Activity (Scintillation Proximity Assay)
row,Structure (SMILES),IC50
1,Cc1csc2nc(C(C)Nc3nc(N)nc4[nH]cnc34)c(-c3cncc(F)c3)c(=O)n12 (configuration not stated),50 to 100 nM
2,Cc1ccc(-c2c(C(C)Nc3ncnc4[nH]cnc34)nc3scc(C)n3c2=O)cc1 (configuration not stated),100 to 500 nM
3,Cc1csc2nc(C(C)Nc3ncnc4[nH]ccc34)c(-c3cc(F)cc(F)c3)c(=O)n12 (configuration not stated),100 to 500 nM
4,CC(Nc1nc(N)nc2[nH]cnc12)c1nc2sccn2c(=O)c1-c1ccccc1 (configuration not stated),100 to 500 nM
5,Cc1csc2nc(C(C)Nc3nc(N)nc4[nH]cnc34)c(-c3ccccc3Cl)c(=O)n12 (configuration not stated),100 to 500 nM and < 50 nM
6,CC(Nc1nc(N)nc2[nH]cnc12)c1nc2ccccn2c(=O)c1-c1cc(F)cc(F)c1 (configuration not stated),100 to 500 nM
7,CC(Nc1ncnc2[nH]cnc12)c1nc2scc(C(F)(F)F)n2c(=O)c1-c1cccc(F)c1 (configuration not stated),50 to 100 nM
8,CCc1cccc2nc(C(C)Nc3ncnc4[nH]cnc34)c(-c3cc(F)cc(F)c3)c(=O)n12 (configuration not stated),100 to 500 nM
9,Cc1csc2nc(C(C)Nc3ncnc4[nH]cnc34)c(-c3cncc(F)c3)c(=O)n12 (configuration not stated),100 to 500 nM
10,Cc1csc2nc(C(C)Nc3nc(N)nc4[nH]cnc34)c(-c3cccc(F)c3F)c(=O)n12 (configuration not stated),< 50 nM
11,Cc1csc2nc(C(C)Nc3ncnc4[nH]cnc34)c(-c3ccccc3Cl)c(=O)n12 (configuration not stated),100 to 500 nM and < 50 nM
12,Cc1csc2nc(C(C)Nc3ncnc4[nH]cnc34)c(-c3cccc(F)c3F)c(=O)n12 (configuration not stated),50 to 100 nM
13,Cc1csc2nc(C(C)Nc3nc(N)nc4[nH]cnc34)c(-c3cc(F)cc(F)c3)c(=O)n12 (configuration not stated),< 50 nM
14,CCC(Nc1ncnc2[nH]cnc12)c1nc2cccc(C)n2c(=O)c1-c1cc(F)cc(F)c1 (configuration not stated),50 to 100 nM
15,Cc1csc2nc(C(C)Nc3ncnc4[nH]cnc34)c(-c3cc(F)cc(F)c3)c(=O)n12 (configuration not stated),< 50 nM
16,Cc1csc2nc(C(C)Nc3nc(N)nc4[nH]cnc34)c(-c3ccccc3F)c(=O)n12 (configuration not stated),< 50 nM

# More lines, now with the values ahead:
row,IC50,Structure (SMILES)
1,100 to 500 nM,Cc1cccc(-c2c(C(C)Nc3ncnc4[nH]cnc34)nc3cccc(C)n3c2=O)c1 (configuration not stated)
2,100 to 500 nM,Cc1cccc2nc(C(C)Nc3ncnc4[nH]cnc34)c(-c3cccc(C#N)c3)c(=O)n12 (configuration not stated)
3,< 50 nM,CCC(Nc1ncnc2[nH]cnc12)c1nc2cccc(C)n2c(=O)c1-c1ccccc1 (configuration not stated)
4,< 50 nM,Cc1cccc2nc(C(C)Nc3nc(N)nc4[nH]cnc34)c(-c3cccc(F)c3)c(=O)n12 (configuration not stated)
5,< 50 nM,Cc1cccc2nc(C(C)Nc3nc(N)nc4[nH]cnc34)c(-c3ccccc3)c(=O)n12 (configuration not stated)
6,< 50 nM,Cc1cccc2nc(C(C)Nc3ncnc4[nH]cnc34)c(-c3cccc(F)c3)c(=O)n12 (configuration not stated)
7,< 50 nM,Cc1csc2nc(C(C)Nc3ncnc4[nH]cnc34)c(-c3ccccc3)c(=O)n12 (configuration not stated)
8,100 to 500 nM,Cc1ccccc1-c1c(C(C)Nc2ncnc3[nH]cnc23)nc2cccc(C)n2c1=O (configuration not stated)
9,< 50 nM,Cc1cccc2nc(C(C)Nc3nc(N)nc4[nH]cnc34)c(-c3ccccc3Cl)c(=O)n12 (configuration not stated)

# Molecular target: PIK3CD (Human) (UniProt O00329)
# Test: Inhibition of PIK3CD Kinase Activity (AlphaScreen Assay)
row,IC50 [nM],Structure (SMILES)
1,100 to 500,Cc1cccc2nc(C(C)n3cnc4c(N)ncnc43)c(-c3ccccc3)c(=O)n12 (configuration not stated)
2,100 to 500,CCC(Nc1ncnc2[nH]cnc12)c1nc2cccc(C)n2c(=O)c1-c1cncc(F)c1 (configuration not stated)
3,< 50,Cc1csc2nc(C(C)Nc3nc(N)nc4[nH]cnc34)c(-c3cccc(F)c3)c(=O)n12 (configuration not stated)
4,100 to 500,CCC(Nc1ncnc2[nH]cnc12)c1nc2cccc(C)n2c(=O)c1-c1cccnc1F (configuration not stated)
5,< 50,Cc1csc2nc(C(C)Nc3nc(N)nc4[nH]cnc34)c(-c3cc(F)cc(F)c3)c(=O)n12 (configuration not stated)
6,< 50,Cc1csc2nc(C(C)Nc3ncnc4[nH]cnc34)c(-c3cc(F)cc(F)c3)c(=O)n12 (configuration not stated)
7,< 50,Cc1csc2nc(C(C)Nc3nc(N)nc4[nH]cnc34)c(-c3ccccc3)c(=O)n12 (configuration not stated)
8,50 to 100,Cc1csc2nc(C(C)Nc3ncnc4[nH]cnc34)c(-c3ccccn3)c(=O)n12 (configuration not stated)

# Molecular target: PIK3CD (Human) (UniProt O00329)
# Test: Inhibition of PIK3CD Kinase Activity
row,IC50 [nM],Structure (SMILES)
1,< 50,Cc1csc2nc(C(C)Nc3ncnc4[nH]cnc34)c(-c3cc(F)cc(F)c3)c(=O)n12 (configuration not stated)
